Target: T1, NCC69 (HA:NCC69) (Drosophila melanogaster, UniProt Q9VTW8)
T1 sequence (Q9VTW8 1-1171): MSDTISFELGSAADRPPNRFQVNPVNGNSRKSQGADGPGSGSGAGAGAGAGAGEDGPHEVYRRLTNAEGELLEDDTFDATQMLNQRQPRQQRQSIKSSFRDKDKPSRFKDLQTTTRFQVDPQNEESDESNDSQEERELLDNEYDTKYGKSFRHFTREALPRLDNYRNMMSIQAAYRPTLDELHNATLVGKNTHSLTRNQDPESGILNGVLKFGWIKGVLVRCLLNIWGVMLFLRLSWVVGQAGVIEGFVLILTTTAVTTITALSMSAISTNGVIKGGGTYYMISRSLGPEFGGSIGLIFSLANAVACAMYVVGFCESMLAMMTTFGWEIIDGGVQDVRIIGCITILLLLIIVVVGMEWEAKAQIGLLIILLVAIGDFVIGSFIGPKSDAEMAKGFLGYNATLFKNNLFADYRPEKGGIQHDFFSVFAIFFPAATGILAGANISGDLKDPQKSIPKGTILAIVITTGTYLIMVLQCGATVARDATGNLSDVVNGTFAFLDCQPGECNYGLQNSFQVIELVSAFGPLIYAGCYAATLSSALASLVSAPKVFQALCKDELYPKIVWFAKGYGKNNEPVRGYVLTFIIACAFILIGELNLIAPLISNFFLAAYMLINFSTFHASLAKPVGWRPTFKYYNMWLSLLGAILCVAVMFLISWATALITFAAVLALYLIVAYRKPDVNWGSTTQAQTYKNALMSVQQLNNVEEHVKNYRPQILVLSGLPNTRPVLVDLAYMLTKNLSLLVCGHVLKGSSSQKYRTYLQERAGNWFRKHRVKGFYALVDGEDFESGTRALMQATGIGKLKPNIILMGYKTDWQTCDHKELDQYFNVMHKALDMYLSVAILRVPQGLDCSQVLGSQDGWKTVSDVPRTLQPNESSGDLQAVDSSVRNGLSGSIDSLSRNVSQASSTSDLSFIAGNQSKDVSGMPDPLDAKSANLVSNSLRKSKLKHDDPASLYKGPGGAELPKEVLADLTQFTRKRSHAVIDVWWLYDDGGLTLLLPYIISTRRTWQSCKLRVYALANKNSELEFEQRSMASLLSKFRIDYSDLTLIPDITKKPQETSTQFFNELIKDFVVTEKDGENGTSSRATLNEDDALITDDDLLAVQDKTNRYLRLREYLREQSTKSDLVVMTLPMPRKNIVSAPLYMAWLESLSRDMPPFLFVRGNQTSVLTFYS
Test: […] influx inhibition in stably transfected SL2 cells
Format: cell-based

SMILES: CCCCNc1cc(C(=O)O)cc(S(N)(=O)=O)c1Oc1ccccc1 [bumetanide]
- Ki: 49 nM
